pIC50: −log10 of the molar value.

This assay deals with T1, Short transient receptor potential channel 5 (Homo sapiens, UniProt Q9UL62).
T1 sequence (Q9UL62 whole entry): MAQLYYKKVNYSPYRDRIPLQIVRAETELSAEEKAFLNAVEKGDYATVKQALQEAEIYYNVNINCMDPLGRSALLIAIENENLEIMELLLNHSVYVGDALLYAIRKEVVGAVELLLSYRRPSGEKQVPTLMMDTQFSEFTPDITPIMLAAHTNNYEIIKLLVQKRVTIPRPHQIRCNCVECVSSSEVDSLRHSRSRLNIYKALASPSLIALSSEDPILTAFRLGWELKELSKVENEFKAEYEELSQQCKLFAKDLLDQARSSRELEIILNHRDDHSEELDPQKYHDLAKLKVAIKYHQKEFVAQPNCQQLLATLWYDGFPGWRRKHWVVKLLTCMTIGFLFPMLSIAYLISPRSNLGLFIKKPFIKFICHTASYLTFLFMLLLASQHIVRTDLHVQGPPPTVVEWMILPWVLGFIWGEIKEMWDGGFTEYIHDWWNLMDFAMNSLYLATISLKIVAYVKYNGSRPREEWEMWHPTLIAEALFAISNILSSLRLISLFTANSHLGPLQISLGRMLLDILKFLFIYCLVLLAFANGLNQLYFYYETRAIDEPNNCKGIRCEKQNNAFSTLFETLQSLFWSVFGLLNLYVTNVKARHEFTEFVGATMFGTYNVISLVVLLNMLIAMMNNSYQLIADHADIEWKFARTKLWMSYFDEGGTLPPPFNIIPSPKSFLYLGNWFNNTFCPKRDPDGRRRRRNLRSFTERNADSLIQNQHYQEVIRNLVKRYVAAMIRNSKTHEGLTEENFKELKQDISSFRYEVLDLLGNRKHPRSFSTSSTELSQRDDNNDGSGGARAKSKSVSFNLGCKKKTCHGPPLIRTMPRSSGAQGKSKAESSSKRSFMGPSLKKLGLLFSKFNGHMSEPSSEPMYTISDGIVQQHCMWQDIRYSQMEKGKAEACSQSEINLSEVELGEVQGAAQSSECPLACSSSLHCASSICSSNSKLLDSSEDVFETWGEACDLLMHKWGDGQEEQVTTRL
Nature of the assay: Inhibition of human TRPC5 expressed in HEK293-T-REx cells assessed as decrease in riluzole-induced calcium response preincubated for 5 min followed by riluzole stimulation by Fluo-4 AM dye based FLIPR assay. The format is cell-based.
As for `O=c1[nH]ncc(N2CCc3c(ncnc3N(CCO)c3ccc(F)cc3C(F)(F)F)C2)c1Cl`, the pIC50 – broadly, the negative decadic logarithm of the IC50, by convention in mol/L – was at least 7.30.

For the compound `O=c1[nH]ncc(N2CCc3c(ncnc3Oc3ccccc3C(F)(F)F)C2)c1Cl`, the pIC50 was at least 7.30. As to `O=c1[nH]ncc(N2CCc3c(ncnc3Oc3ccc(F)cc3Cl)C2)c1Cl`, the pIC50 is at least 7.30. The value for `CN(c1cnccc1C(F)(F)F)c1ncnc2c1CCN(c1cn[nH]c(=O)c1Cl)C2` was at least 7.30; that for `CCc1c(F)cccc1Oc1ncnc2c1CCN(c1cn[nH]c(=O)c1Cl)C2` was at least 7.30.

The values are drawn from ChEMBL document CHEMBL4706721, “Novel Pyridazinones as TRPC5 Inhibitors for Treating Kidney Diseases” (ACS Med Chem Lett, 2021).
